According to ChEMBL document CHEMBL2034875, “Bifunctionalized amphilectane diterpenes from the sponge Stylissa cf. massa” (J Nat Prod, 2012):
The source made the active and inactive calls. The rule behind the calls is not given here.

How the values were obtained:
Plasmodium falciparum [1] = experiment: Antimalarial activity against Plasmodium falciparum K1 infected in human erythrocytes assessed as inhibition of [3H]hypoxanthine incorporation incubated for 24 hrs prior to hypoxanthine addition measured after 18 hrs by liquid scintillation counting; type: functional, organism-based
[2] = Cytotoxicity against human MCF7 cells assessed as growth inhibition at 25 ug/mL by SRB assay; type: cell-based; details: read-out: GI
Plasmodium falciparum [3] = experiment: Antimalarial activity against Plasmodium falciparum K1 infected in human erythrocytes assessed as inhibition of [3H]hypoxanthine incorporation at 10 ug/mL incubated for 24 hrs prior to hypoxanthine addition measured after 18 hrs by liquid scintillation counting; type: functional, organism-based

| Structure (SMILES) | IC50 (Plasmodium falciparum [1]) | inhibition at 25 ug/mL [2] | Activity (Plasmodium falciparum [3]) |
| --- | --- | --- | --- |
| [C-]#[N+][C@@]12CCC(=C)[C@H]3[C@H](CC(C)(C)NC=O)C[C@H](C)[C@@H](CC[C@@H]1C)[C@@H]32 | 0.52 µM | < 50% | – |
| C=C(C)C[C@@H]1C[C@H](C)[C@H]2CC[C@](C)(NC=O)[C@H]3CCC(=C)[C@@H]1[C@H]23 | – | < 50% | inactive |
| C=C1CC[C@@]2(N=C=S)[C@H]3[C@H](CC[C@@H]2C)[C@@H](C)C[C@@H](CC(C)(C)NC=O)[C@H]13 | 8.07 µM | < 50% | – |
| C[C@H]1[C@@H](O)O[C@@H]2O[C@@]3(C)CC[C@H]4[C@H](C)CC[C@@H]1[C@@]24OO3 [ARTENIMOL] | 0.0038 µM | – | – |
| C=C1CC[C@@]2(N=C=O)[C@H]3[C@H](CC[C@@H]2C)[C@@H](C)C[C@@H](CC(C)(C)NC=O)[C@H]13 | 8.85 µM | < 50% | – |
